Test results as given in US6362179B1, “Salts of an optically-active sulfoxide derivative” (Sankyo Company, Limited, priority 1997, dated 2002).

Key:
NK1 receptor = target: T1, NK1 receptor (Cavia porcellus, UniProt P30547); assay: Inhibitory effect against increased vascular permeability induced by substance P; assay type: in vivo, guinea pig; settings: male Hartley guinea pigs; for ID50 (mg/kg, p.o.): oral administration 1 hour before SP (1 μg/kg i.v.), Evans blue leakage into primary bronchus; for Inhibitory rate (%) on oral administration at 3.3 mg/kg: 3.3 mg/kg p.o. 1 hour before SP, pigment leakage
T1 construct: increased vascular permeability induced by substance P (SP), an NK1 receptor agonist; from tissue; host or cells: living male Hartley guinea pig; pigment leakage at the primary bronchus
T1 sequence (P30547 whole entry): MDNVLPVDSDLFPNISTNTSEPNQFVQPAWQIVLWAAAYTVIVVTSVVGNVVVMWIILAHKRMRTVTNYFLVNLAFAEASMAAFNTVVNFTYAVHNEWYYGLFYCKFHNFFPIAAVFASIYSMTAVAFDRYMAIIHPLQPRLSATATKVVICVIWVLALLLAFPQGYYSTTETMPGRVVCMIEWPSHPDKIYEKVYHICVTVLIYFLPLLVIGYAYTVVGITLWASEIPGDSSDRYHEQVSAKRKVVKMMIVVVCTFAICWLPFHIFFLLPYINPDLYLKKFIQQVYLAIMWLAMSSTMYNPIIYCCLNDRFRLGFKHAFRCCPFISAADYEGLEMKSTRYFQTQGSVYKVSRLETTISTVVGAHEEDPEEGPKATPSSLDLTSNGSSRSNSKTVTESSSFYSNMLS
Description: Inhibitory Effect Against Increased Vascular Permeability
The inhibitory effect on increased vascular permeability induced by substance P (SP), an NK1 receptor agonist, was assessed based on the amount of pigment leakage as an index using guinea pigs (body weight: approx. 400 g, male Hartley guinea pigs).
A pigment (Evans blue: 40 mg/kg) was administered to the femoral vein of a guinea pig anesthetized with pentobarbital (30 mg/kg, i.p.) and immediately after that, SP (1 μg/kg) was intravenously injected to induce accentuation of vascular permeability. Fifteen minutes after the injection, the guinea pig was sacrificed under anesthesia with chloroform and the amount of the pigment leaked into the primary bronchus site was measured in accordance with Harada's method (J. Pharm. Pharmacol. 23, 218(1971)). A test substance was suspended in a 0.5% tragacanth suspension and orally administered to a guinea pig 1 hour before induction by SP. Its inhibitory action was determined by the ratio of the pigment leaked from the test-substance-administered group to that from the non-administered group. In Table 1, 50% inhibitory dose (ID50) and inhibitory rate in the case of oral administration at 3.3 mg/kg are shown.

NK2 receptor = target: T2, NK2 receptor (Cavia porcellus, UniProt Q64077); assay: Inhibitory effect against bronchoconstriction induced with [Nle10]-NKA[4-10]; assay type: in vivo, guinea pig; settings: for ID50 (mg/kg, p.o.): male Hartley guinea pigs, oral administration one hour before [Nle10]-NKA[4-10] (4 μg/kg i.v.), AUC of airway pressure
T2 construct: bronchoconstriction induced with [Nle^10]-NKA[4-10], an NK2 receptor agonist; from tissue; host or cells: living male Hartley guinea pig; airway pressure (Konzett-Roessler)
T2 sequence (Q64077 1-402): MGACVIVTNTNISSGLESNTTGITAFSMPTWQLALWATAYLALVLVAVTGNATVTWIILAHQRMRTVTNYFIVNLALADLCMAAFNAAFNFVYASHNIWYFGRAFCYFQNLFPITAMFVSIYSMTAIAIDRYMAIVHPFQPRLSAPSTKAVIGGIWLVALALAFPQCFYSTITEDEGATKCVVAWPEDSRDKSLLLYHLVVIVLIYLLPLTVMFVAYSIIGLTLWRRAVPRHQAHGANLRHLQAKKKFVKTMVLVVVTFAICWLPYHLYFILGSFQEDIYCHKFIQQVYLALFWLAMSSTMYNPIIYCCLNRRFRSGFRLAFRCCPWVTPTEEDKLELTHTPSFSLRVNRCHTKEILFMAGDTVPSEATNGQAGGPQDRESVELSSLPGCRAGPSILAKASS

NK1 receptors = NK1 receptors (Homo sapiens, UniProt P25103); assay: Pharmacological test of antagonistic activity against NK1 receptors in vitro; settings: test made by the present inventors
Chain of NK1 receptors (P25103 whole entry): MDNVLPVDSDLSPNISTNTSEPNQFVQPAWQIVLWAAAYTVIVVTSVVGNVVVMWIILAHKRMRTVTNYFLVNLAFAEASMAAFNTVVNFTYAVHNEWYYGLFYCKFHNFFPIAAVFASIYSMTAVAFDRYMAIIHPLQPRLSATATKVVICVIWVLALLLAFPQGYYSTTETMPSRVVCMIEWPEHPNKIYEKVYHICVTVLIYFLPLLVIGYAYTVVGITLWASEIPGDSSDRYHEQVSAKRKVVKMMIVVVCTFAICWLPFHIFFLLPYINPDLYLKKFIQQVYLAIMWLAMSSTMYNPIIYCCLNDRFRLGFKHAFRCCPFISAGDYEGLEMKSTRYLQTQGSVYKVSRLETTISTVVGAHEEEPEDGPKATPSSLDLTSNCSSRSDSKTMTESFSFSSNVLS

Row | Inhibitory rate (%) on oral administration at 3.3 mg/kg (NK1 receptor) [%] | ID50 (mg/kg, p.o.) (NK2 receptor) [mg/kg] | SMILES | ID50 (mg/kg, p.o.) (NK1 receptor) | ED50 (NK2 receptor; guinea pig, guinea pigs, intravenous injection of test substance, read-out: ID50 (the source's name)) [mg/kg] | antagonistic activity against NK1 receptors in vitro (NK1 receptors)
1 | – | – | Cc1cc(C)cc(C(=O)N(C)C[C@@H](CCN2CCC3(CC2)CN(S(C)(=O)=O)c2ccccc23)c2ccc(Cl)c(Cl)c2)c1 [Compound A, reference compound] | greater than 10 mg/kg | > 10 | –
2 | 48.0 | 0.51 | COc1cc(C(=O)N2CCO[C@](CCN3CCC4(CC3)c3ccccc3C[S@@+]4[O-])(c3ccc(Cl)c(Cl)c3)C2)cc(OC)c1OC.Cl [Compound of Ex. 1, 1-{2-[(2R)-(3,4-Dichlorophenyl)-4-(3,4,5-trimethoxybenzoyl)morpholin-2-yl]ethyl}spiro[benzo(c)thiophene-1(3H),4′-piperidin]-(2S)-oxide hydrochloride] | 5.1 mg/kg | – | –
3 | 46.8 | 0.54 | COc1cc(C(=O)N2CCOC(CCN3CCC4(CC3)c3ccccc3C[S+]4[O-])(c3ccc(Cl)c(Cl)c3)C2)cc(OC)c1OC.O=C(O)/C=C/C(=O)O [Compound of Ex. 2, 1-{2-[(2R)-(3,4-Dichlorophenyl)-4-(3,4,5-trimethoxybenzoyl)morpholin-2-yl]ethyl}spiro[benzo(c)thiophene-1(3H),4′-piperidin]-(2S)-oxide fumarate] | – | – | –
4 | – | – | CN(C[C@@H](CCN1CCC2(CCc3ccccc32)CC1)c1ccc(Cl)c(Cl)c1)C(=O)c1ccccc1 [B] | – | – | markedly weak
